Assay [1] addresses T1, FGFR3 (Homo sapiens, UniProt P22607).
T1 construct: made in house; host or cells: E. coli (BL21-derived), T7 phage
The experiment in a line: Kinase binding assay (kinase-tagged T7 phage, affinity beads, qPCR), Kd. As to conditions: read-out: FGFR3 (Kd nM). Put shortly: (§1)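 Competition binding; kinase-tagged T7 phage lysate vs immobilised biotinylated ligand on streptavidin beads, 0.9% DMSO final. 11-pt 3-fold dilutions, 3 DMSO controls. qPCR of eluted kinase; Kd by Hill fit, slope −1.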
For orientation: Quantitative PCR measures a nucleic acid by following its amplification.

The target in assay [2] is T2, FGFR1 (Homo sapiens, UniProt P11362).
T2 construct: made in house; host or cells: E. coli (BL21-derived), T7 phage
Described as above. To be noted: read-out: FGFR1 (Kd nM). Put shortly: as §1

Assay [3] concerns MDA-MB-453 cell line (FGFR4-Y367C). The experiment in a line: Cancer cell line cell viability assay (Cell Titer-Glo), 120 hr. Type of assay: cell-based. As to conditions: Homo sapiens. Put shortly: (§2)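 5,000-20,000 cells/well o/n; cpd 9-pt 4x dil from 3 μM, n=3; 37° C/5% CO2; CTG 2.0 lumi; % DMSO ctrl; 4PL IC50.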
For orientation: In ATP-based viability assays light output follows the ATP content of the culture.

Assay [4] concerns KATO-III cell line (FGFR2 amplification). The experiment in a line: Cancer cell line cell viability assay (Cell Titer-Glo), 72 hr. In kind it is cell-based. To be noted: Homo sapiens, KATO III. Put shortly:
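Luminescent ATP read-out (Cell Titer-Glo 2.0) after compound exposure, normalised to DMSO-only wells. Dosing: 9 concentrations, 4-fold steps, top 3 μM, triplicates. IC50 derived by log(inhibitor) vs. response 4-parameter fit.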

Assay [5] deals with RT112/84 cell line (FGFR3-fusion). Described as above. To be noted: Homo sapiens, RT112/84, RT112/84 cell line (FGFR3-fusion). Type of assay: cell-based. Put shortly:
as §2

For assay [6], the system named is KG-1 cell line (FGFR 1-fusion). The description is as above. In kind it is cell-based. As to conditions: Homo sapiens, KG-1, KG-1 cell line (FGFR1-fusion). A digest of the protocol:
as §2

From patent US20250368666A1, “INDAZOLE COMPOUNDS” (TYRA BIOSCIENCES, INC., priority 2022, published 2025) come the findings set out here.

Structures can show the parent of a compound that is named as a salt.

T2 sequence (P11362 22-822): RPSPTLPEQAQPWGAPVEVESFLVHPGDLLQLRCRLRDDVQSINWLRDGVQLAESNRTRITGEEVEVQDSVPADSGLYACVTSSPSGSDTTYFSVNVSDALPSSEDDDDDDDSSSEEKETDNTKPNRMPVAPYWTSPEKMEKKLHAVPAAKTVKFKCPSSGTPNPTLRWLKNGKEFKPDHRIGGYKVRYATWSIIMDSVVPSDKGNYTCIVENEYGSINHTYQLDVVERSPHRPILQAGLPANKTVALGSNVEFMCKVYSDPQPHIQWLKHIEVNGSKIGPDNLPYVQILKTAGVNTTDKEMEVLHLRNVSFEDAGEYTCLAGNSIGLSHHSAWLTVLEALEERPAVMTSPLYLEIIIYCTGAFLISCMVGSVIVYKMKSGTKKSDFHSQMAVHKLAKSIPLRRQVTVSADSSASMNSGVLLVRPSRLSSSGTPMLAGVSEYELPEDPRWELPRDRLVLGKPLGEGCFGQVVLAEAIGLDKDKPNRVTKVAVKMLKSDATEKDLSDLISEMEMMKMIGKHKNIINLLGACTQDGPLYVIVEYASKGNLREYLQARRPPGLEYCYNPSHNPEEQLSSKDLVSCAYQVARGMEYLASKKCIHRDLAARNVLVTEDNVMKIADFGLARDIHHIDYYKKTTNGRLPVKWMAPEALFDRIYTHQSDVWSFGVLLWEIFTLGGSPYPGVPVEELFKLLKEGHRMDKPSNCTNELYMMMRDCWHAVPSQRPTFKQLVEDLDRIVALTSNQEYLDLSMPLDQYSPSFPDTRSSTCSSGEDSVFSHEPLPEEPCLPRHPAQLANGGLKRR
T1 sequence (P22607 23-806): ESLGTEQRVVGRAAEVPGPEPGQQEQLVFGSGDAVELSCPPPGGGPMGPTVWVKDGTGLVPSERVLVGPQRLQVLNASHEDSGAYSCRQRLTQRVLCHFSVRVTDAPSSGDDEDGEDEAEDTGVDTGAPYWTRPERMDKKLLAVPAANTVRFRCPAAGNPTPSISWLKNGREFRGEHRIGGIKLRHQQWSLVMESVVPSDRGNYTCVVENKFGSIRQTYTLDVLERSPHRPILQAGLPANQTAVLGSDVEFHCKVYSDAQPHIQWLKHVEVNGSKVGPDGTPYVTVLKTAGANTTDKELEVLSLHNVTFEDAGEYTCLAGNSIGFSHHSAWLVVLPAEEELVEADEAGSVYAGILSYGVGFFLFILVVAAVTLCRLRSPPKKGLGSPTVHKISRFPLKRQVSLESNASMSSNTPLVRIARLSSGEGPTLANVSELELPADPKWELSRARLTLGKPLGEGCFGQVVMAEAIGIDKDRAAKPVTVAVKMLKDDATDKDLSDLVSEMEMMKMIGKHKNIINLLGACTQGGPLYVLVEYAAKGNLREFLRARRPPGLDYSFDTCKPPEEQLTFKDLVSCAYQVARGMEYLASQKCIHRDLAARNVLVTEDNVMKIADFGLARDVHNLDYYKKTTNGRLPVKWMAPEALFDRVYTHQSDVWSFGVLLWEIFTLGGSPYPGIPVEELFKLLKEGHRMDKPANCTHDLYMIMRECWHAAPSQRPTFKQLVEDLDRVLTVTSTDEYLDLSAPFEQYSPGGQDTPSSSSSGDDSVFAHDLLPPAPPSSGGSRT

Regarding `C[C@@H](Oc1ccc2[nH]nc(-c3cnc(N4CC(N)(C5CCC5)C4)c(F)c3)c2c1)c1c(Cl)cncc1Cl` [Example 256, (R)-3-cyclobutyl-1-(5-(5-(1-(3,5-dichloropyridin-4-yl)ethoxy)-1H-indazol-3-yl)-3-fluoropyridin-2-yl)azetidin-3-amine], the Kd in assay [1] and in assay [2] was 1 to 50 nM throughout. For the same compound, the IC50 (as a rule, the concentration that inhibits the measured activity by half) lay in the range of 50 to 200 nM in assay [3], 50 to 200 nM in assay [4], 0.1 to 50 nM in assay [5] and 50 to 200 nM in assay [6].

Turning to `C[C@@H](Oc1ccc2[nH]nc(-c3cnc(N4CC(N)(CC(C)(C)O)C4)c(F)c3)c2c1)c1c(Cl)cncc1Cl` [Example 266, (R)-1-(3-amino-1-(5-(5-(1-(3,5-dichloropyridin-4-yl)ethoxy)-1H-indazol-3-yl)-3-fluoropyridin-2-yl)azetidin-3-yl)-2-methylpropan-2-ol], the dissociation constant Kd in assay [1] and in assay [2] was 1 to 50 nM in each case. The concentration for half-maximal inhibition (IC50) in assay [3] was above 1000 nM; in assay [4], 50 to 200 nM; in assay [5], 0.1 to 50 nM; in assay [6], 200 to 1000 nM.

`C[C@@H](Oc1ccc2[nH]nc(-c3cnc(N4CC(N)(CCO)C4)c(F)c3)c2c1)c1c(Cl)cncc1Cl` [Example 259, (R)-2-(3-amino-1-(5-(5-(1-(3,5-dichloropyridin-4-yl)ethoxy)-1H-indazol-3-yl)-3-fluoropyridin-2-yl)azetidin-3-yl)ethanol]: the equilibrium dissociation constant (Kd) in assay [1] and in assay [2] was 1 to 50 nM each time. Besides, the IC50 is 0.1 to 50 nM in assay [3], 0.1 to 50 nM in assay [4], 0.1 to 50 nM in assay [5] and 50 to 200 nM in assay [6].

With `C[C@@H](Oc1ccc2[nH]nc(-c3ccc(N4CC(N)(Cc5cnn(C)c5)C4)nn3)c2c1)c1c(Cl)cncc1Cl` [Example 289, (R)-1-(6-(5-(1-(3,5-dichloropyridin-4-yl)ethoxy)-1H-indazol-3-yl)pyridazin-3-yl)-3-((1-methyl-1H-pyrazol-4-yl)methyl)azetidin-3-amine], the Kd in assay [1] and in assay [2] was 1 to 50 nM in each case. Moreover, the IC50 in assay [3] is 200 to 1000 nM; in assay [4] it was 50 to 200 nM; in assay [5], 0.1 to 50 nM; in assay [6], 200 to 1000 nM.

Consider `C[C@@H](Oc1ccc2[nH]nc(-c3cnc(N4CC(N)(Cc5cnn(C)c5)C4)c(F)c3)c2c1)c1c(Cl)cncc1Cl` [Example 290, (R)-1-(5-(5-(1-(3,5-dichloropyridin-4-yl)ethoxy)-1H-indazol-3-yl)-3-fluoropyridin-2-yl)-3-((1-methyl-1H-pyrazol-4-yl)methyl)azetidin-3-amine], for which the Kd in assay [1] and in assay [2] was 1 to 50 nM in each case. Also, the IC50 in assay [3] lay within 50 to 200 nM; in assay [4] it was 50 to 200 nM; in assay [5] it was 0.1 to 50 nM; in assay [6], 50 to 200 nM.

As to `C[C@@H](Oc1ccc2[nH]nc(-c3cnc(N4CC(N)(CC5CC5)C4)c(F)c3)c2c1)c1c(Cl)cncc1Cl` [Example 262, (R)-3-(cyclopropylmethyl)-1-(5-(5-(1-(3,5-dichloropyridin-4-yl)ethoxy)-1H-indazol-3-yl)-3-fluoropyridin-2-yl)azetidin-3-amine], the equilibrium dissociation constant (Kd) in assay [1] and in assay [2] was 1 to 50 nM throughout. The IC50 was in the range of 200 to 1000 nM in assay [3], 50 to 200 nM in assay [4], 0.1 to 50 nM in assay [5] and 50 to 200 nM in assay [6].

In the case of `C[C@@H](Oc1ccc2[nH]nc(-c3cnc(N4CC(CC#N)(N5CCCC5)C4)c(F)c3)c2c1)c1c(Cl)cncc1Cl` [Example 251, (R)-2-(1-(5-(5-(1-(3,5-dichloropyridin-4-yl)ethoxy)-1H-indazol-3-yl)-3-fluoropyridin-2-yl)-3-(pyrrolidin-1-yl)azetidin-3-yl)acetonitrile], the Kd in assay [1] and in assay [2] was 1 to 50 nM throughout. For the same compound, the IC50 in assay [3] is 50 to 200 nM; in assay [4] it was 0.1 to 50 nM; in assay [5], 0.1 to 50 nM; in assay [6], 50 to 200 nM.

With `CC(C)NC1(C)CN(c2ccc(-c3n[nH]c4ccc(O[C@H](C)c5c(Cl)cncc5Cl)cc34)nn2)C1` [Example 244, (R)-1-(6-(5-(1-(3,5-dichloropyridin-4-yl)ethoxy)-1H-indazol-3-yl)pyridazin-3-yl)-N-isopropyl-3-methylazetidin-3-amine], the Kd in assay [1] and in assay [2] was 1 to 50 nM in each case. For the same compound, the concentration for half-maximal inhibition (IC50) lay within 200 to 1000 nM in assay [3], 50 to 200 nM in assay [4], 0.1 to 50 nM in assay [5] and 50 to 200 nM in assay [6].

As for `C[C@@H](Oc1ccc2[nH]nc(-c3cnc(N4CC(C)(OCCN5CCCC5)C4)c(F)c3)c2c1)c1c(Cl)cncc1Cl` [Example 261, (R)-5-(1-(3,5-dichloropyridin-4-yl)ethoxy)-3-(5-fluoro-6-(3-methyl-3-(2-(pyrrolidin-1-yl)ethoxy)azetidin-1-yl)pyridin-3-yl)-1H-indazole], the dissociation constant (Kd) in assay [1] and in assay [2] was 1 to 50 nM in each case. Further, the IC50 fell in the range of 50 to 200 nM in assay [3], 0.1 to 50 nM in assay [4], 0.1 to 50 nM in assay [5] and 50 to 200 nM in assay [6].

For the compound `C[C@@H](Oc1ccc2[nH]nc(-c3cnc(N4CC(C)(NCC5CC5)C4)cc3F)c2c1)c1c(Cl)cncc1Cl` [Example 243, (R)—N-(cyclopropylmethyl)-1-(5-(5-(1-(3,5-dichloropyridin-4-yl)ethoxy)-1H-indazol-3-yl)-4-fluoropyridin-2-yl)-3-methylazetidin-3-amine], the Kd in assay [1] and in assay [2] was 1 to 50 nM throughout. The IC50 in assay [3] fell in the range of 50 to 200 nM; in assay [4], 200 to 1000 nM; in assay [5], 0.1 to 50 nM; in assay [6], 200 to 1000 nM.

With `CCC1(N)CN(c2ncc(-c3n[nH]c4ccc(O[C@H](C)c5c(Cl)cncc5Cl)cc34)cc2F)C1` [Example 260, 1-[5-[5-[(1R)-1-(3,5-dichloro-4-pyridyl)ethoxy]-1H-indazol-3-yl]-3-fluoro-2-pyridyl]-3-ethyl-azetidin-3-amine], the Kd in assay [1] and in assay [2] was 1 to 50 nM throughout. The IC50 was in the range of 0.1 to 50 nM in assay [3], 50 to 200 nM in assay [4], 0.1 to 50 nM in assay [5] and 50 to 200 nM in assay [6].

Take `CCC1(NCC2CC2)CN(c2ncc(-c3n[nH]c4ccc(O[C@H](C)c5c(Cl)cncc5Cl)cc34)cc2F)C1` [Example 247, N-(cyclopropylmethyl)-1-[5-[5-[(1R)-1-(3,5-dichloro-4-pyridyl)ethoxy]-1H-indazol-3-yl]-3-fluoro-2-pyridyl]-3-ethyl-azetidin-3-amine dihydrochloride]: the Kd in assay [1] and in assay [2] was 1 to 50 nM each time. In addition, the IC50 lay in the range of 50 to 200 nM in assay [3], 50 to 200 nM in assay [4], 0.1 to 50 nM in assay [5] and 50 to 200 nM in assay [6].

`C[C@@H](Oc1ccc2[nH]nc(-c3cnc(N4CC(N)(CCS(C)(=O)=O)C4)c(F)c3)c2c1)c1c(Cl)cncc1Cl` [Example 270, (R)-1-(5-(5-(1-(3,5-dichloropyridin-4-yl)ethoxy)-1H-indazol-3-yl)-3-fluoropyridin-2-yl)-3-(2-(methylsulfonyl)ethyl)azetidin-3-amine]: the Kd in assay [1] and in assay [2] was 1 to 50 nM throughout. Also, the IC50 in assay [3] was in the range of 0.1 to 50 nM; in assay [4], 0.1 to 50 nM; in assay [5], 0.1 to 50 nM; in assay [6], 50 to 200 nM.
